Experimental data reported in patent US7465814B2, “Sulfonate compound and fluorescent probe using the same” (priority 2003, dated 2008).

How the values were obtained:
[1] = Reaction with other nucleophilic agents instead of thiol; format: biochemical; conditions: same conditions as the thiol test
Protocol: Quantitativity and the like of each of the compounds 6a and 8a with respect to a mercapto compound were evaluated, by using glutathione (GSH) and cysteine that are kinds of thiol. […] Moreover, a probe solution containing 8a was prepared in the same manner as the preparation of the solution of the compound 6a except using 8a instead of 6a, and this probe solution also was allowed to react with a thiol solution in the same manner as the reaction of the probe solution containing 6a. Then, a fluorescence response of each well was measured after the reaction. The measurement of 6a was conducted at λex=383 nm and λem=500 nm, and the measurement of 8a was conducted at λex=483 nm and λem=515 nm. Herein, λex denotes an excitation wavelength, and λem denotes an emission wavelength.

[2] = Fluorescence response to thiophosphonate group (FIG. 8); format: biochemical
Excerpt: Moreover, a capability of the sulfonate compound of the present invention as a fluorescent probe for mercapto compounds other than thiol (a compound in which a —SH group is bonded to a carbon atom) was examined. […]

[3] = Capability as superoxide-detecting fluorescent probe (reactivity with superoxide); format: biochemical; conditions: tested similarly to the compound 1d
Protocol: Then, by mainly using the compound 1d as a testing compound, the capability thereof as a superoxide-selective fluorescent probe was evaluated, and moreover, a test in a cell system also was conducted. These tests will be described below.
Thus, it is thought that each compound synthesized from a combination of: a phenolic colorant; and a 2,4-dinitrobenzenesulfonyl group, a 4-trifluoromethyl-2-nitrobenzenesulfonyl group or a 4-nitrobenzenesulfonyl group can be used as a superoxide-detecting fluorescent probe similarly. An example of the usage thereof will be shown in Scheme 8 below. Furthermore, it can be expected that a compound for a fluorescent probe having characteristics that are suitable for its application purpose can be designed and developed freely, by designing the compound of the present invention freely within the limitation defined by the general formula (I) and using the fluorescence mechanism developed by the inventors of the present invention, without being limited to the above-described combinations. Examples of the application purpose of the compound of the present invention are varied, including an application to a faintly coloring technique using superoxide.

[4] = Fluorescence response to cysteine, quantitativity (FIG. 5); format: biochemical; conditions: for detection limit of cysteine: probe 200 μL, HEPES pH 7.4, 37° C., 10 minutes; for inclination of calibration curve, cysteine: up to 1000 pmol
Protocol: (§1) Quantitativity and the like of each of the compounds 6a and 8a with respect to a mercapto compound were evaluated, by using glutathione (GSH) and cysteine that are kinds of thiol. More specifically, an EtOH solution of the compound 6a (10 mM) was prepared, and it further was diluted by 500-fold with a HEPES buffer solution having a pH of 7.4, thereby preparing a probe solution containing the compound 6a. Next, 200 μL of this probe solution and 10 μL of each of solutions of glutathione or cysteine (dissolved in a HEPES buffer solution having a pH of 7.4) with various concentrations were added into each well of a 96-wellmicroplate, and were allowed to stand still at 37° C. for 10 minutes so as to undergo a reaction. Moreover, a probe solution containing 8a was prepared in the same manner as the preparation of the solution of the compound 6a except using 8a instead of 6a, and this probe solution also was allowed to react with a thiol solution in the same manner as the reaction of the probe solution containing 6a. Then, a fluorescence response of each well was measured after the reaction. The measurement of 6a was conducted at λex=383 nm and λem=500 nm, and the measurement of 8a was conducted at λex=483 nm and λem=515 nm. Herein, λex denotes an excitation wavelength, and λem denotes an emission wavelength.
(§2) FIG. 5A is a graph showing the measurement result of 6a, and FIG. 5B is a graph showing the measurement result of 8a.

[5] = Reactivity with superoxide and glutathione (FIG. 4); format: biochemical; conditions: same conditions as 1-3 Superoxide-selectivity (2)
Protocol: (§3) Moreover, in other conditions than those of the above-described tests, reactivity of all of the compounds 1a to 1d with H2O2, other various kinds of nucleophilic agents, reducing agents and the like also was tested, respectively. More specifically, fluorescent responses of 1a to 1d with respect to a XO-HPX system, a XO-HPX-SOD system, H2O2, ascorbic acid, 1,4-hydroquinone, propylamine, diethylamine, glucose, esterase, a cytochrome P450 reductase+NADPH system, and a diaphorase+NADH system were measured, respectively. Operational processes thereof will be described below. Firstly, 1a to 1d and the above-described reagents were dissolved in HEPES of 10 mM having a pH of 7.4 so as to prepare solutions, respectively. Next, a 96 wellmicroplate was provided, where any of the solutions of 1a to 1d (25 μM, 170 μL) was poured into each of the wells, and furthermore, 30 μL of a blank solution or 30 μL of the solution of the reagent to be reacted therewith was added thereto. Final concentrations of the solutions in the wells were adjusted so that concentrations of the solutions of 1a to 1d respectively could be 21.3 μM, that of XO could be 13.1 mU/mL, those of HPX, H2O2, ascorbic acid, 1,4-hydroquinone, propylamine, diethylamine, glucose, NADPH and NADH respectively could be 50 μM, that of cytochrome P450 reductase could be 68 mU/mL, that of diaphorase could be 65 mU/mL, and that of esterase could be 0.5 U/mL, respectively. Then, after they reacted in the wells at 37° C. for 10 minutes, fluorescent responses were measured respectively. Fluorescence intensity measurement was conducted by using an ETC-272 Peltier thermostatted single cell holder (trade name) manufactured by JASCO Corporation or a SpectraMax GeminiEM fluorescence plate reader (trade name) manufactured by Molecular Devices Corporation provided with a FP-750 spectrofluorometer (trade name) manufactured by JASCO Corporation, and by setting excitation wavelengths and emission wavelengths so that those of 1a, 1b and 1c respectively could be 485 nm and 515 nm, and those of 1d respectively could be 511 nm and 540 nm.
(§4) The reactivity of each of the compounds 1d, 5a, 6a, 7 and 8a with respect to superoxide and glutathione (GSH) that is a kind of thiol was tested under the same conditions as those of [1-3. Superoxide-selectivity (2)] in Example 1. […] A vertical axis thereof denotes a fluorescence intensity, which is represented in % of control.

[6] = Responses to the compounds listed in Table 1; format: biochemical; conditions: same conditions as Example 1
Protocol: as §3, §4

[7] = Fluorescence response to glutathione, quantitativity (FIG. 5); format: biochemical; conditions: for detection limit of GSH: probe 200 μL, HEPES pH 7.4, 37° C., 10 minutes; for inclination of calibration curve, GSH: up to 1000 pmol
Protocol: as §1, §2

[8] = tested on: thiophosphorylated protein; assay: Fluorescence response to thiophosphorylated protein; format: biochemical
[9] = tested on: acetyl cholinesterase (AChE); conditions: range from 0.1 μU to 0.5 μU, 37° C., 10 minutes, acetyl thiocholine substrate
Protocol: Firstly, an EtOH solution of the compound 8a (10 mM) was prepared, and it further was diluted by 500-fold with a HEPES buffer solution having a pH of 7.4, thereby preparing a probe solution containing the compound 8a (20 μM). Whereas, a solution (1 mM) was prepared by dissolving commercially available acetyl thiocholine in a HEPES buffer solution having a pH of 7.4. Moreover, acetyl cholinesterase (AChE) solutions (solutions obtained by dissolving acetyl cholinesterase in a HEPES buffer solution having a pH of 7.4) with various concentrations (activity levels) were prepared.
Next, 200 μL of the probe solution, 10 μL of the acetyl thiocholine solution and 10 μL of each of the acetyl cholinesterase (AChE) solutions with various concentrations (activity levels) were added into each well of a 96-wellmicroplate, and underwent an enzyme reaction at 37° C. for 10 minutes. Immediately after the reaction, a fluorescence response of each well was measured at λex (excitation wavelength) of 483 nm and λem (emission wavelength) of 515 nm.

SMILES | fluorescence with other nucleophilic agent instead of thiol [1] | response to thiol group in thiophosphonate group ([2]; γ-S-ATP and adenosine monothiophosphate (S-AMP)) | deprotection by superoxide into the corresponding fluorochrome [3] | detection limit of cysteine [4] [pmol] | inclination of calibration curve, cysteine [4] [au/pmol] | selectivity (specificity), superoxide versus glutathione, FIG. 4 [5] | response with respect to each of the compounds listed in Table 1 [6] | detection limit of GSH [7] [pmol] | inclination of calibration curve, GSH [7] [au/pmol] | detection limit of γ-S-ATP ([2]; probe 20 μM 200 μL, imidazole buffer pH 7.4, 37° C., 180 minutes) [pmol] | fluorescence responses to thiophosphorylated protein with different introduction degrees of the thiophosphonate group [8] | inclination, AChE activity versus fluorescence response [9] [au/μU]
O=c1cc(C(F)(F)F)c2ccc(OS(=O)(=O)c3ccc([N+](=O)[O-])cc3[N+](=O)[O-])cc2o1 [Compound 6a] | no fluorescence at all | responded to a thiol group in a so-called thiophosphonate group | deprotected by superoxide | 7 | 0.66 | excellent mercapto compound-selectivity | almost no response | 7 | 0.37 |  |  | 
O=C(O)c1ccccc1-c1c2ccc(=O)cc-2oc2cc(OS(=O)(=O)c3ccc([N+](=O)[O-])cc3[N+](=O)[O-])ccc12 [Compound 8a] | no fluorescence at all |  |  | 1 | 4.82 | excellent mercapto compound-selectivity | almost no response | 2 | 4.25 | 5 | fluorescence responses corresponding to the respective introduction degrees were obtained | 28.8
